The values that follow come from patent publication US12655125B2 (SIRONAX LTD., priority 2020, dated 2026).

By EC50 is commonly meant the concentration needed to bring the measured effect to its halfway point.

The assay has as its system HT-29 cells. Description: HT29 Cells 0FBS Assay In Vitro (TNF-α/SMAC mimetic/zVAD-FMK induced necroptosis, CellTiter-Glo cell viability). The note with it: Homo sapiens, HT-29 cells, FBS free medium, TNF-α (10 ng/ml), SMAC mimetic (6 uM), zVAD-FMK (10 μM), 20 hours, geometric mean EC50. Format: cell-based. Summed up: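 HT-29 cells (5,000/well, seeded overnight) in serum-free McCoy's 5A were stimulated with TNF-α 10 ng/ml, SMAC mimetic 6 μM and zVAD-FMK 10 μM to induce necroptosis. Compound added as 10-point 3-fold series for 20 h at 37° C. CellTiter-Glo luminescence gives viability; EC50 is geometric mean of duplicate dose-responses.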
(In general: In ATP-based viability assays light output follows the ATP content of the culture.)

The mark [1] stands for this setting: read-out: Cell activity (EC50) of Compounds 1-116.
The mark [2] stands for this setting: read-out: Cell activity (EC50) of Compounds 117-281.

Where two headings read alike, the source gives them in different places.

With `CN(C)CCNC(=O)c1cnn(C)c1-c1cc(OC2CN(C(=O)N3N=CC[C@H]3c3cc(F)cc(F)c3)C2)c(F)cn1` [compound 69, (S)-5-(4-((1-(5-(3,5-difluorophenyl)-4,5-dihydro-1H-pyrazole-1-carbonyl)azetidin-3-yl)oxy)-5-fluoropyridin-2-yl)-N-(2-(dimethylamino)ethyl)-1-methyl-1H-pyrazole-4-carboxamide], the half-maximal effective concentration (EC50) under setting [1] is 100 to 1000 nM. On the same count and under the same terms, the value for `NC(=O)Cn1nccc1-c1ncc(F)c(OC2CN(C(=O)N3N=CC[C@H]3c3cc(F)cc(F)c3)C2)n1` [compound 88, (S)-2-(5-(4-((1-(5-(3,5-difluorophenyl)-4,5-dihydro-1H-pyrazole-1-carbonyl)azetidin-3-yl)oxy)-5-fluoropyrimidin-2-yl)-1H-pyrazol-1-yl)acetamide] was 100 to 1000 nM. Turning to `CN1CCN(CC(=O)Nc2cnn(C)c2-c2cc(OC3CN(C(=O)N4N=CC[C@H]4c4cc(F)cc(F)c4)C3)c(F)cn2)CC1` [compound 123, (S)—N-(5-(4-((1-(5-(3,5-difluorophenyl)-4,5-dihydro-1H-pyrazole-1-carbonyl)azetidin-3-yl)oxy)-5-fluoropyridin-2-yl)-1-methyl-1H-pyrazol-4-yl)-2-(4-methylpiperazin-1-yl)acetamide], the EC50 under setting [2] fell in the range of 100 to 1000 nM. Regarding `Cc1nc(C)n(-c2cc(OC3CN(C(=O)N4N=CC[C@H]4c4cc(F)cc(F)c4)C3)c(F)cn2)n1` [compound 104, (S)-(5-(3,5-difluorophenyl)-4,5-dihydro-1H-pyrazol-1-yl)(3-((2-(3,5-dimethyl-1H-1,2,4-triazol-1-yl)-5-fluoropyridin-4-yl)oxy)azetidin-1-yl)methanone], the EC50 under setting [1] lay within 0.1 to 100 nM. For the molecule `Cc1nc(C)c(-c2ncc(F)c(OC3CN(C(=O)N4N=CC[C@H]4c4cc(F)cc(F)c4)C3)n2)s1` [compound 19, (S)-(5-(3,5-difluorophenyl)-4,5-dihydro-1H-pyrazol-1-yl)(3-((2-(2,4-dimethylthiazol-5-yl)-5-fluoropyrimidin-4-yl)oxy)azetidin-1-yl)methanone], under setting [1], the EC50 lay in the range of 0.1 to 100 nM. Take `Cc1nn(-c2cc(OC3CN(C(=O)N4N=CC[C@H]4c4cc(F)cc(F)c4)C3)c(F)cn2)cc1C(N)=O` [compound 272, (S)-1-(4-((1-(5-(3,5-difluorophenyl)-4,5-dihydro-1H-pyrazole-1-carbonyl)azetidin-3-yl)oxy)-5-fluoropyridin-2-yl)-3-methyl-11H-pyrazole-4-carboxamide]: the EC50 under setting [2] was 0.1 to 100 nM.
